The source of these data is ChEMBL document CHEMBL1201862, “PubChem BioAssay data set” (2004).

Activity calls are given as the source filed them. Where only a bound is given, the exact number is not on record here.

The target of one experiment is T1, Estrogen receptor (Homo sapiens, UniProt P03372).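 Further: potency for inhibiting coactivator peptide recruitment to the receptor.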
T1 sequence (P03372 whole entry): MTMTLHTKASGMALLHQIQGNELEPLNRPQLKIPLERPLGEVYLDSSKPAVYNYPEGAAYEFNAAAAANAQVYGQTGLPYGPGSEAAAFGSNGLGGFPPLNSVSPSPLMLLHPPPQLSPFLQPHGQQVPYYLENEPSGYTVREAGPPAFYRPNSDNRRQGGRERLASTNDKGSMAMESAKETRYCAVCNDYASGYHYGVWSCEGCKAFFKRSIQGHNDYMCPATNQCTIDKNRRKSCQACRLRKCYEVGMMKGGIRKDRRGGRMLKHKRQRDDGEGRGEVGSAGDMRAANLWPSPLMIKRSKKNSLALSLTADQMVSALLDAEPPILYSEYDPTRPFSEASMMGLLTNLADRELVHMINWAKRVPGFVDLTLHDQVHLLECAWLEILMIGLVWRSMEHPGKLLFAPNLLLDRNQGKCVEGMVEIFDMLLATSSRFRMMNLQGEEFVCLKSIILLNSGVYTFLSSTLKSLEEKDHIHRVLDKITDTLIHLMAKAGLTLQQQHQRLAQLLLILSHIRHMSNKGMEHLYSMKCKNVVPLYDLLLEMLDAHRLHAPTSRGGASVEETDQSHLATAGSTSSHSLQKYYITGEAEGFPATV

For the next experiment, the target named is T2, Protein skinhead-1 (Caenorhabditis elegans, UniProt P34707).
T2 sequence (P34707 whole entry): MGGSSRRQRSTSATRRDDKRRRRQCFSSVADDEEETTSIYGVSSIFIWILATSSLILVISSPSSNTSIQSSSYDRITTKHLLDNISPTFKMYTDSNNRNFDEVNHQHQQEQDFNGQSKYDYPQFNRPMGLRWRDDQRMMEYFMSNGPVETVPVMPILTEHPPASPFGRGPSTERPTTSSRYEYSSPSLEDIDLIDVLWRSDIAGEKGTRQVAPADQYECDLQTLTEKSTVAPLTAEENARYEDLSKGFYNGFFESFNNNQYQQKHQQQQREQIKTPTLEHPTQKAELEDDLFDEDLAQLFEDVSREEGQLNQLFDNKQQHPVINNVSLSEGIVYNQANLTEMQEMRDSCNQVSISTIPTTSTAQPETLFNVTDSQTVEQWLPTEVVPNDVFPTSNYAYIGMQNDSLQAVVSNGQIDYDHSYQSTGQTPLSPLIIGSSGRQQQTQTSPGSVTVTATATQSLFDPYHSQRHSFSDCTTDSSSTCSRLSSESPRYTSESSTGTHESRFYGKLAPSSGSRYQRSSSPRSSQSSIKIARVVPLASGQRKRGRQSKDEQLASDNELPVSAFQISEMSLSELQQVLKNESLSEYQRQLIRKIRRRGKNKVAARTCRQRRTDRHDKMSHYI
Format: functional.

Experiment [1] concerns the target Fructose-bisphosphate aldolase (Mycobacterium tuberculosis, UniProt P9WQA3). The experiment is described as follows: Fluorescence-based biochemical high throughput dose response assay for inhibitors of the fructose-bisphosphate aldolase (FBA) of M. tuberculosis. Format: functional.
Experiment [2] has as its target Aryl hydrocarbon receptor (Homo sapiens, UniProt P35869). In words: Luminescence-based cell-based high throughput dose response assay for activators of the Aryl Hydrocarbon Receptor (AHR). [Related pubchem assays: 2796 (Primary screen (AHR activators in singlicate)), 2845 (Confirmation screen (AHR activators in triplicate)), 434939 (Counterscreen (PXR activators in triplicate)), 2804 (Summary (AHR activators))]. Format: ADME.

The nature of experiment [3]: A cytotoxicity screen of small molecule inhibitors of the PhoP region in Salmonella typhi identified in the primary screen. [Related pubchem assays: 1850, 1864, 1985 ]. Format: functional.
A further experiment deals with NADPH oxidase 1 (Homo sapiens, UniProt Q9Y5S8). The experiment is classed as functional, cell-based.
Experiment [4] deals with Serine/threonine-protein phosphatase PP1-alpha catalytic subunit (Homo sapiens, UniProt P62136). In words: inhibition of protein phosphatase 1 activity – biochemical, fluorescence, dose response (AID 2394).
The target in experiment [5] is Serine/threonine-protein phosphatase (Homo sapiens, UniProt Q9BPW0). The experiment is described as follows: inhibition of protein phosphatase 5 activity – biochemical, fluorescence, dose response (AID 2395).
Experiment [6] in a line: HPDE-C7 pancreatic duct cell viability loss – fluorescence, HTS (AID 430). The experiment is classed as functional, cell-based. The following applies: Homo sapiens.
Experiment [7] can be described thus: viability loss of HPDE-C7K cells – cell-based, fluorescence, HTS, primary screen (AID 431). The experiment is classed as functional. The following applies: Homo sapiens.

Sequence of Aryl hydrocarbon receptor (P35869 whole entry): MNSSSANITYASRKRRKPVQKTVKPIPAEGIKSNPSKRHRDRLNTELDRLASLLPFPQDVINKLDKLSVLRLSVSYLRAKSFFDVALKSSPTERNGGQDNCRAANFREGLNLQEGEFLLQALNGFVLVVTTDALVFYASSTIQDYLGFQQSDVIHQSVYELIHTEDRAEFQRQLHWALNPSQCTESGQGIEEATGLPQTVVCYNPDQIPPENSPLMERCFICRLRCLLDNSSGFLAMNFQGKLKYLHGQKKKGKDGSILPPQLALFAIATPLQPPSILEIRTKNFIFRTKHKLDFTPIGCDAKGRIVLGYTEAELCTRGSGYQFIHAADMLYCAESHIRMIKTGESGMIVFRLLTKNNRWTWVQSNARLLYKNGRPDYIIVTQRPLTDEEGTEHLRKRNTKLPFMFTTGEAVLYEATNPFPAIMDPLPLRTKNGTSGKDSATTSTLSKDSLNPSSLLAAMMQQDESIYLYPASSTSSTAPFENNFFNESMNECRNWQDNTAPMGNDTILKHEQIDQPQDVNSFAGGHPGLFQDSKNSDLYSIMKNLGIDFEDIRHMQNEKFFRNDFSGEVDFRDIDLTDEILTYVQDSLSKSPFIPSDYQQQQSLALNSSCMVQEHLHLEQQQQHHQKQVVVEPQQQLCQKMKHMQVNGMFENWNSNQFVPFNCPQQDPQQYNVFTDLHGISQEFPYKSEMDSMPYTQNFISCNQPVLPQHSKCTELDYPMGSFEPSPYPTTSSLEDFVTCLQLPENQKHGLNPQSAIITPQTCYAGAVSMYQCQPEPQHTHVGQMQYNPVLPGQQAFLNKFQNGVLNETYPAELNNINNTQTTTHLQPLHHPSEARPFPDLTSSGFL
Sequence of Serine/threonine-protein phosphatase PP1-alpha catalytic subunit (P62136 whole entry): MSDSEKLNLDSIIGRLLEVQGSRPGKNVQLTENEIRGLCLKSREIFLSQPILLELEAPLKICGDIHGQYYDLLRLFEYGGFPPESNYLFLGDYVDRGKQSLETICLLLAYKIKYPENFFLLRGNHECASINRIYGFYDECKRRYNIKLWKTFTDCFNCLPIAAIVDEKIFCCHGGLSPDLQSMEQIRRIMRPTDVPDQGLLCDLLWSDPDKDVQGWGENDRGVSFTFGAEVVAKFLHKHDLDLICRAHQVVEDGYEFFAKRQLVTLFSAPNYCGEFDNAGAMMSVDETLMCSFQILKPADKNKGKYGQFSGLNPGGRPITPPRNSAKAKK
Sequence of NADPH oxidase 1 (Q9Y5S8 whole entry): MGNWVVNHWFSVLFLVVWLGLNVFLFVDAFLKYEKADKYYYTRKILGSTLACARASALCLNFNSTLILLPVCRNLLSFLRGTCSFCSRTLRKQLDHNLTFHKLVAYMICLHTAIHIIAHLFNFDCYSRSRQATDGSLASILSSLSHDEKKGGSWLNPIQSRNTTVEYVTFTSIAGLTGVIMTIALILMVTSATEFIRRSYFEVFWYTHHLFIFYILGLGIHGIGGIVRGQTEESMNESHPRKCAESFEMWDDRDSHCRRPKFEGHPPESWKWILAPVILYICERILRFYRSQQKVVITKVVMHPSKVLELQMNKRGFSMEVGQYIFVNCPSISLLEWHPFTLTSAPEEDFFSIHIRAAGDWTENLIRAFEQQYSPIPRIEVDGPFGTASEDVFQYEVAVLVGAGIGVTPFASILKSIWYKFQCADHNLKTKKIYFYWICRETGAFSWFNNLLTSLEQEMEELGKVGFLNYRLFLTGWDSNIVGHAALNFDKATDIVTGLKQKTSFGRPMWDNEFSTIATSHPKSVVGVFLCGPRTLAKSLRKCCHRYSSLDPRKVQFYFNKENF
Sequence of Fructose-bisphosphate aldolase (P9WQA3 whole entry): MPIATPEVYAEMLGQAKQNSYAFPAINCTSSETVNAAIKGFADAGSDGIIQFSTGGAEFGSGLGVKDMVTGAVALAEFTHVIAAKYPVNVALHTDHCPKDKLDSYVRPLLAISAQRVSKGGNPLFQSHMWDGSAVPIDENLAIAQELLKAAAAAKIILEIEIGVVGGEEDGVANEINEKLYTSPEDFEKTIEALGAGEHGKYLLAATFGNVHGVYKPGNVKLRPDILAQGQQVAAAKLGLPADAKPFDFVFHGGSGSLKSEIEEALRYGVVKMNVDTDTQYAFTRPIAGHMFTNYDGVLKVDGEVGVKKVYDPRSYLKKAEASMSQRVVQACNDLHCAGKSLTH
Sequence of Serine/threonine-protein phosphatase (Q9BPW0 whole entry): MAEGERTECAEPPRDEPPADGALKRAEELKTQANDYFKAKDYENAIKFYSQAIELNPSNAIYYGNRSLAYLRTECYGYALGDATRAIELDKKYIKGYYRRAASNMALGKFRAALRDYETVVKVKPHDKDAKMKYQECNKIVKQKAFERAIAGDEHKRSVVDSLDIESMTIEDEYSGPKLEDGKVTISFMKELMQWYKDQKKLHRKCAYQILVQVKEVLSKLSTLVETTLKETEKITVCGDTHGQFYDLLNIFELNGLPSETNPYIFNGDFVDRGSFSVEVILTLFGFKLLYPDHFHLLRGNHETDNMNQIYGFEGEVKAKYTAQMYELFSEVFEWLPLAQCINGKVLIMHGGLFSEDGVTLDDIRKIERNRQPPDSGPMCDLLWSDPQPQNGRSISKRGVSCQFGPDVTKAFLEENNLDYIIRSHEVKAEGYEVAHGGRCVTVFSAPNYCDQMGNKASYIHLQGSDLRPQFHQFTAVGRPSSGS

As to `N#Cc1c(N)oc(-c2ccc3c(c2)OCO3)c1-c1ccc2c(c1)OCO2`, the results for the IC50 on Estrogen receptor and on Protein skinhead-1 were > 50 µM (not active) and > 100 µM (inactive), respectively.
As for `O=C(Nc1ccon1)c1cnc2sccn2c1=O`, the IC50 (as a rule, the point on the concentration scale where inhibition reaches its midpoint) in [1] is 4.61 µM (active). Moreover, the EC50 (in general, the concentration at which the effect is half-maximal) in experiment [2] was 1.85 µM (active).
Take `COc1ccc(N2CCN(c3cc(C)c4ccc(O)cc4n3)CC2)cc1`: the values for the concentration giving a half-maximal response (EC50) in [2] and in [3] were 3.47 µM (active) and > 50 µM (active), respectively.
On to `Cc1ccc(S(=O)(=O)c2ccc3c(c2)Sc2ccc(Cl)cc2N3)cc1`, for which the IC50 at NADPH oxidase 1 is 5.25 µM (active).
In the case of `COC(=O)CCC(=O)OC1(C)C(=O)C=C2C=C(C3CC3)N(C3CCCC3)C=C2C1=O` (stereo not drawn), the results for the IC50 in experiment [4] and in experiment [5] were > 67 µM (not active) and 11 µM (not active), respectively.
Turning to `O=S(=O)(CC(CN1CCCC1)N1CCCC1)c1ccc2ccccc2c1` (stereo not drawn), the half-maximal effective concentration (EC50) in experiment [6] is 2.04 µM (active); in [7], 2.38 µM (active).
In the same order, the values of `COc1ccc(-n2nnc3c(SCC(=O)Nc4ccc5c(c4)OCCO5)ncnc32)cc1` are 7.96 µM (active) and 8.32 µM (active).
